Results reported in paper PMC10581520 (Veterinární Medicína, 2023).
Several values for one entry are separate records, joined by “and”; a condition that tells them apart may be missing. Identical values can stand only once. Like-named read-outs stand apart in the source and are kept apart here.

How the values were obtained:
[1] = Kinetic study: N-demethylation of CIT and DCIT in Beagle dog liver microsomes; format: in vitro ADME; conditions: Beagle, dog, liver microsomes, pH 7.4
[2] = tested on: Beagle dog liver microsomes; assay: as above; format: in vitro ADME; conditions: for IC of N-demethylation, Beagle dogs versus humans: liver microsomes, dog data of this study compared with literature human data; for Km1 / Km2 / Vmax1 / Vmax2: dog liver microsomes
[3] = in dogs; ref Matsui et al. 1995; cited from earlier work
Beagle dogs = conditions: cited from earlier work
patients = conditions: cited from earlier work; for arrhythmia risk category: associated risk of arrhythmia and possible TdP risk, ref Fanoe et al. 2014; for effect on QTc-interval and risk for torsades de pointes (TdP): patients; for risk group classification: ref www.crediblemeds.org
Human liver microsomes = conditions: cited from earlier work
[4] = tested on: N-demethylation of DCIT; CYP3A12 (ketoconazole), CYP2C21/41 (omeprazole); format: in vitro ADME, Beagle dog; conditions: Beagle, dog, liver microsomes, pH 7.4, probe DCIT 10 and 100 μM, formation of DDCIT
[5] = tested on: serotonin [5-hydroxytryptamine (5-HT)] reuptake; conditions: compared with S-CIT; ref Hyttel et al. 1992; Hyttel 1993; cited from earlier work
[6] = tested on: dog liver microsomes (CYP2D15, CYP3A12, CYP2C21/41); format: in vitro ADME, Beagle dog; conditions: for effect on the production of the DCIT and DDCIT enantiomers: dog liver microsomes, data not shown
[7] = tested on: N-demethylation of DCIT; CYP2D15 (quinidine); format: in vitro ADME, Beagle dog; conditions: Beagle, dog, liver microsomes
[8] = substrate CIT, metabolite R-DCIT
[9] = substrate CIT, metabolite S-DCIT
[10] = substrate DCIT, metabolite DDCIT
[11] = substrate DCIT, metabolite R-DDCIT
[12] = substrate DCIT, metabolite S-DDCIT
[13] = 100 μM quinidine, 10 μM DCIT, n = 3

## CN(C)CCCC1(c2ccc(F)cc2)OCc2cc(C#N)ccc21 (stereo not shown) [CIT, citalopram]
[1]
  Km at 1 h: ≤ 1.4 µM
[2]
  IC of N-demethylation, Beagle dogs versus humans: about 10 times higher
[2]; substrate CIT, metabolite DCIT
  Km1: 1.1 µM and 1.1 ± 0.3 µM
  Km2: 1 006 μM
  Vmax1: 47 ± 3 pmol/(min × mg of protein)
  Vmax2: 591 ± 28 pmol/(min × mg of protein)
[2]; [8]
  Km1: 1.4 ± 0.5 µM
  Vmax1: 21 ± 2 pmol/(min × mg of protein)
  Vmax2: 338 ± 24 pmol/(min × mg of protein)
[2]; [9]
  Km1: 1.0 ± 0.2 µM
  Km2: 848 ± 69 µM
  Vmax1: 26 ± 1 pmol/(min × mg of protein)
  Vmax2: 264 ± 10 pmol/(min × mg of protein)
[3]
  mean elimination half-life: 9.6 h
Beagle dogs; dogs, ref Boeck and Overo 1982
  convulsive effect in dogs: severe convulsive attacks
  electrocardiographic changes in dogs: no electrocardiographic changes were observed
patients
  arrhythmia risk category: Class B
  effect on QTc-interval and risk for torsades de pointes (TdP): increase the QTc-interval
  risk group classification: risk group 1
Human liver microsomes; read-out: Km values, stereoselective CIT N-demethylation, human liver microsomes, ref Rochat et al. 1997, Olesen and Linnet 1999, von Moltke et al. 2001
  Km: ≥ 17.3 µM

## CC(=O)N1CCN(c2ccc(OCC3COC(Cn4ccnc4)(c4ccc(Cl)cc4Cl)O3)cc2)CC1 (stereo not shown) [ketoconazole]
[4]
  inhibition at 1 h: < 15%

## N#Cc1ccc2c(c1)COC2(CCCN)c1ccc(F)cc1 (stereo not shown) [DDCIT, didesmethylcitalopram]
[3]
  mean elimination half-life: 27.8 h
Beagle dogs; dog, ref Shanks et al. 2009
  plasma level to which DDCIT toxicity is related: ≥ 1 000 nM and ≥ 300 ng/ml
[5]
  potency as serotonin reuptake inhibitors: lower than that of S-CIT

## CNCCCC1(c2ccc(F)cc2)OCc2cc(C#N)ccc21 (stereo not shown) [DCIT, desmethylcitalopram]
[1]
  Km at 1 h: ≤ 1.4 µM
[2]
  IC of N-demethylation, Beagle dogs versus humans: about 30 times higher
[2]; [10]
  Km1: 0.6 ± 0.2 µM
  Km2: 137 ± 18 µM
  Vmax1: 44 ± 4 pmol/(min × mg of protein)
  Vmax2: 155 ± 5 pmol/(min × mg of protein)
[2]; [11]
  Km1: 0.3 ± 0.2 µM
  Km2: 212 µM and 212 ± 24 µM
  Vmax1: 11 ± 2 pmol/(min × mg of protein)
  Vmax2: 105 ± 3 pmol/(min × mg of protein)
[2]; [12]
  Km1: 0.6 ± 0.1 µM
  Km2: 66 µM and 66 ± 11 µM
  Vmax1: 31 ± 3 pmol/(min × mg of protein)
  Vmax2: 55 ± 2 pmol/(min × mg of protein)
[3]
  mean elimination half-life: 8.1 h
[5]
  potency as serotonin reuptake inhibitors: lower than that of S-CIT
Human liver microsomes; humans, ref von Moltke et al. 2001
  IC values, N-demethylation of DCIT enantiomers: ≤ 1.3 pmol/(min × mg protein)
Human liver microsomes; read-out: Km values, N-demethylation of DCIT enantiomers, humans, ref von Moltke et al. 2001
  Km: ≥ 72 µM

## Cc1nc2c([nH]1)c(=O)n(C)c(=O)n2Cc1ccco1 [furafylline]
[6]
  effect on the production of the DCIT and DDCIT enantiomers: did not notably modify

## C=C[C@H]1C[N@@]2CC[C@H]1C[C@@H]2[C@@H](O)c1ccnc2ccc(OC)cc12 [quinidine]
[7]; pH 7.4, probe DCIT 10 μM, formation of R-DDCIT
  inhibition at 1 h, 100 μM: 80.5%
[7]; pH 7.4, probe DCIT 10 μM, formation of S-DDCIT
  inhibition at 1 h, 100 μM: 86.4%
[7]; pH 7.4, probe DCIT 100 μM, formation of R-DDCIT
  inhibition at 1 h, 100 μM: 61.6%
[7]; pH 7.4, probe DCIT 100 μM, formation of S-DDCIT
  inhibition at 1 h, 100 μM: 57.6%
[6]; 100 μM quinidine, 10 μM CIT, n = 5
  difference in the production of S-DCIT from CIT in comparison to absence of the inhibitor: 36.9 ± 8.53 pmol/(min × mg protein)
[6]; [13]
  difference of the production of R-DDCIT in comparison to absence of the inhibitor: 63.3 ± 2.72 pmol/(min × mg protein)
  difference of the production of S-DDCIT in comparison to absence of the inhibitor: 172 ± 6.6 pmol/(min × mg protein)

## CN(C)CCC[C@@]1(c2ccc(F)cc2)OCc2cc(C#N)ccc21 [S-CIT, S-citalopram]
patients
  arrhythmia risk category: Class B
  effect on QTc-interval and risk for torsades de pointes (TdP): increase the QTc-interval
  risk group classification: risk group 1

## Nc1ccc(S(=O)(=O)Nc2ccnn2-c2ccccc2)cc1 [sulphaphenazole]
[6]
  effect on the production of the DCIT and DDCIT enantiomers: did not notably modify

## COc1ccc2[nH]c([S+]([O-])Cc3ncc(C)c(OC)c3C)nc2c1 (stereo not shown) [omeprazole]
[4]
  inhibition at 1 h: < 15%
